Columns and labels:
[1] = target: T1, Methylated-DNA--protein-cysteine methyltransferase (Homo sapiens) (UniProt P16455); assay: In vitro inhibitory activity of compound against AGT (O6-alkylguanine-DNA alkyltransferase) at a concentration of 0.1 uM using breast cancer MCF cells, expressed as Fmol O6-MeG removed/mg of protein; type: cell-based
T1 sequence (whole entry): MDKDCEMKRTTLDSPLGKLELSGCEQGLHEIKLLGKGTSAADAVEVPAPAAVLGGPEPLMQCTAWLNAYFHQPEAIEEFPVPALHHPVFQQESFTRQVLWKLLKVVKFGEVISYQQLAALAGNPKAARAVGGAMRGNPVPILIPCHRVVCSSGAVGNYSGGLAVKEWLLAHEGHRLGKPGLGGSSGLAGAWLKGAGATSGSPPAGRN

[2] = target: T1, Methylated-DNA--protein-cysteine methyltransferase (Homo sapiens); assay: In vitro inhibitory activity of compound against AGT (O6-alkylguanine-DNA alkyltransferase) at a concentration of 10 uM using breast cancer MCF cells, expressed as Fmol O6-MeG removed/mg of protein; type: cell-based
[3] = target: T1, Methylated-DNA--protein-cysteine methyltransferase (Homo sapiens); assay: In vitro inhibitory activity of compound against AGT (O6-alkylguanine-DNA alkyltransferase) at a concentration of 1 uM using breast cancer MCF cells, expressed as Fmol O6-MeG removed/mg of protein; type: cell-based
[4] = target: T1, Methylated-DNA--protein-cysteine methyltransferase (Homo sapiens); assay: In vitro inhibitory activity of compound against AGT (O6-alkylguanine-DNA alkyltransferase) at a concentration of 50 uM using breast cancer MCF cells, expressed as Fmol O6-MeG removed/mg of protein; type: cell-based
[5] = target: T1, Methylated-DNA--protein-cysteine methyltransferase (Homo sapiens); settings: MCF7; 50 uM
Description: In vitro inhibitory activity of compound against AGT (O6-alkylguanine-DNA alkyltransferase) at a concentration of 50 uM using breast cancer MCF-7 cells, expressed as Fmol O6-MeG removed/mg of protein

[6] = target: T1, Methylated-DNA--protein-cysteine methyltransferase (Homo sapiens); settings: MCF7; 1 uM
Description: In vitro inhibitory activity of compound against AGT (O6-alkylguanine-DNA alkyltransferase) at a concentration of 1 uM using breast cancer MCF-7 cells, expressed as Fmol O6-MeG removed/mg of protein

[7] = target: T1, Methylated-DNA--protein-cysteine methyltransferase (Homo sapiens); settings: MCF7; 10 uM
Description: In vitro inhibitory activity of compound against AGT (O6-alkylguanine-DNA alkyltransferase) at a concentration of 10 uM using breast cancer MCF-7 cells, expressed as Fmol O6-MeG removed/mg of protein

[8] = target: T1, Methylated-DNA--protein-cysteine methyltransferase (Homo sapiens); settings: MCF7; 0.1 uM
Description: In vitro inhibitory activity of compound against AGT (O6-alkylguanine-DNA alkyltransferase) at a concentration of 0.1 uM using breast cancer MCF-7 cells, expressed as Fmol O6-MeG removed/mg of protein

SMILES | Activity ((fM of O6-MeG removed) (mg of protein)-1) [1] | Activity ((fM of O6-MeG removed) (mg of protein)-1) [2] | Activity ((fM of O6-MeG removed) (mg of protein)-1) [3] | Activity ((fM of O6-MeG removed) (mg of protein)-1) [4] | Activity ((fM of O6-MeG removed) (mg of protein)-1) [5] | Activity ((fM of O6-MeG removed) (mg of protein)-1) [6] | Activity ((fM of O6-MeG removed) (mg of protein)-1) [7] | Activity ((fM of O6-MeG removed) (mg of protein)-1) [8]
COCc1ccc(COc2[nH]c(N)nc3ncnc2-3)cc1 | 457 | 35 | 292 | 58 |  |  |  | 
Nc1nc(OCc2ccccc2)c2nc[nH]c2n1 |  |  |  |  | 19 | 164 | 50 | 2390
COCc1cccc(COc2[nH]c(N)nc3ncnc2-3)c1 | 1640 | 21 | 1140 | 15 |  |  |  | 
COCc1ccccc1COc1[nH]c(N)nc2ncnc1-2 | 2340 | 2490 | 2300 | 660 |  |  |  | 

Source: ChEMBL document CHEMBL1136584, “Synthesis and preliminary biological evaluation of 6-O-[11C]-[(methoxymethyl)benzyl]guanines, new potential PET breast cancer imaging agents for the DNA repair protein AGT” (Bioorg Med Chem Lett, 2003)
